Data as given in ChEMBL document CHEMBL1136588, “Exploring new non-sugar sulfated molecules as activators of antithrombin” (Bioorg Med Chem Lett, 2003).

Experiments:
Coagulation factor X [1] = target: T1, Coagulation factor X (Homo sapiens, UniProt P00742); assay: Inhibitory activity against Plasma coagulation enzyme factor Xa; Value expressed as k Act/k UNCAT (uncatalyzed); assay type: cell-free
Coagulation factor X [2] = target: T1, Coagulation factor X; assay: Equilibrium dissociation constant of factor Xa inhibition
Coagulation factor X [3] = target: T1, Coagulation factor X; assay: Second-order rate constant of factor Xa inhibition

T1 sequence (P00742 41-179 limits assumed): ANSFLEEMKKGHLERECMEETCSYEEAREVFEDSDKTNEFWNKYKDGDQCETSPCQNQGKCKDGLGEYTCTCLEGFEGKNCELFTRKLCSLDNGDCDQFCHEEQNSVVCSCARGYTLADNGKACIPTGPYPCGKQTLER
T1 sequence (P00742 235-488 limits assumed): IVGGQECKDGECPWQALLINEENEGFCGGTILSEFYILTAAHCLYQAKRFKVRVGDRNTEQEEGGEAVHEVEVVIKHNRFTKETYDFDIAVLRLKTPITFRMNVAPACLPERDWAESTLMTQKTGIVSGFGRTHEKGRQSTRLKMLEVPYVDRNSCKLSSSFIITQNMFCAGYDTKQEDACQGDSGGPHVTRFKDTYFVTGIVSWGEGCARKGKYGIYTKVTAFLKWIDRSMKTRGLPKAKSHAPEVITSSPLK

| Acceleration (Coagulation factor X [1]) | Kd (Coagulation factor X [2]) | k act (Coagulation factor X [3]) | SMILES |
| --- | --- | --- | --- |
| 20.8 | 3.5 µM | 6750 M⁻¹ s⁻¹ | O=S(=O)(O)Oc1cc2c(c(OS(=O)(=O)O)c1)C[C@@H](OS(=O)(=O)O)[C@H](c1ccc(OS(=O)(=O)O)c(OS(=O)(=O)O)c1)O2 |
| 8.5 | 26.1 µM | 2770 M⁻¹ s⁻¹ | O=S(=O)(O)Oc1cc2c(c(OS(=O)(=O)O)c1)CC(OS(=O)(=O)O)C(c1ccc(OS(=O)(=O)O)c(OS(=O)(=O)O)c1)O2 (stereo unspecified) |
| 10.4 | 10.7 µM | 3380 M⁻¹ s⁻¹ | O=S(=O)(O)Oc1cc2c(c(OS(=O)(=O)O)c1)C[C@H](OS(=O)(=O)O)[C@H](c1ccc(OS(=O)(=O)O)c(OS(=O)(=O)O)c1)O2 |
| 19.7 | 95 µM | 6400 M⁻¹ s⁻¹ | CO[C@@H]1O[C@@H](C(=O)O)[C@@H](O[C@H]2OC(COS(=O)(=O)O)=C[C@H](OS(=O)(=O)O)[C@H]2NS(=O)(=O)O)[C@H](O)[C@H]1OS(=O)(=O)O |
| 17.5 | 17 µM | 5700 M⁻¹ s⁻¹ | O=c1c(OS(=O)(=O)O)c(-c2ccc(OS(=O)(=O)O)c(OS(=O)(=O)O)c2)oc2cc(OS(=O)(=O)O)cc(OS(=O)(=O)O)c12 |
| 320 | 2 µM | 45000 M⁻¹ s⁻¹ | CO[C@H]1O[C@H](COS(=O)(=O)O)[C@@H](O[C@@H]2O[C@H](C(=O)O)[C@@H](O[C@H]3O[C@H](COS(=O)(=O)O)[C@@H](O)[C@H](O)[C@H]3NS(=O)(=O)O)[C@H](O)[C@H]2O)[C@H](OS(=O)(=O)O)[C@H]1NS(=O)(=O)O |
| 21.8 | 1.8 µM | 7100 M⁻¹ s⁻¹ | O=c1c(OS(=O)(=O)O)c(-c2ccc(OS(=O)(=O)O)cc2OS(=O)(=O)O)oc2cc(OS(=O)(=O)O)cc(OS(=O)(=O)O)c12 |
